Test results as given in US12577247B2 (BUGWORKS RESEARCH, INC., priority 2021, dated 2026).

Experiments:
[1] = Pharmacokinetic study in mice; assay type: in vivo, CD1 mice; settings: for Cmax / Tmax: po
Experimental: (§1) Intravenous (i.v) and Oral formulations for pharmacokinetic (PK) studies was formulated in different vehicles and excipients to achieve the desirable solubility for intravenous and Oral routes of administration.
(§2) Appropriate amount of the test compound was weighed and dissolved in required volume of the vehicles, followed by vertexing for a few seconds to dissolve the compound. Then the solution (or) suspension was sonicated at room temperature for 5 minutes to obtain a visually clear solution and or homogenous suspension. All the formulations were prepared freshly at room temperature before dosing.
(§3) The rodent pharmacokinetic studies were carried out in male Sprague-Dawley (SD) rats (8-12 weeks of age, weighing 280±20 g at the time of dosing) and CD1 mice (8-12 weeks of age, weighing 30-35 g body weight at the time of dosing) to estimate the plasma clearance, volume of distribution and terminal half-life, area under curve (AUC) and peak plasma concentration (Cmax) and time of peak plasma concentration (Tmax) following intravenous and oral routes of administration. The detailed experimental design is described in the Table 8 below.
(§4) Rats were anaesthetized by Isoflurane anaesthesia. The jugular and femoral veins of rat were cannulated, and the study was performed 48 h post cannulation. At each time point about 100 μL, of rat blood was collected from the jugular vein into a labelled microfuge tube containing 200 mM K2EDTA solution (20 μL, per mL of blood) and equivalent volume of heparinized saline was replaced following sample collection. Similarly, 25 μL, of mice blood was collected from the saphenous vein into a labelled microfuge tube containing 200 mM K2EDTA solution
(§5) Serial blood sampling method was used for blood collection. Blood samples were collected at pre-dose, 0.25 h, 0.5, 1, 2, 4, 6, 8 and 24-hours post dose. The blood samples were processed to obtain the plasma samples within 30 min of scheduled sampling time. All plasma samples were stored −70° C. until bioanalysis.
(§6) Plasma samples were analysed for a fit-for purpose LC-MS/MS method with a lower limit of quantification. The pharmacokinetic parameters were calculated using the non-compartmental analysis tool of validated Phoenix® WinNonlin® software (Certara, USA version 8.4) with linear up and log down method for estimating AUC.
(§7) All animals in intravenous (IV bolus) group were under fed state and animals in oral groups were fasted overnight (min 12 hr) before dose administration and food was provided 4 h post dose administration. All animals were received water ad libitum during the study period. The mean (±SD) pharmacokinetic parameters of Example 13, Example 122b & Example 39 following IV bolus and Oral dose administration in Mice/Rat and Dog is provided in Table-9.

[2] = Cell based permeability/efflux Caco-2 assay; assay type: in vitro ADME; settings: human, Caco-2, 10 μM; for Papp A→B at 120 min, 10 µM: apical to basolateral; for Papp B→A at 120 min, 10 µM: basolateral to apical
Experimental: Briefly, Permeability in a Caco-2 monolayer was determined at 10 μM. High density Caco-2 cells were obtained with fluent monolayer with trans epithelial electrical resistance (TEER) values greater than 350 ohm·cm^2 in the assay at 21 days of culture in 24 or 96 well insert plates. TEER was measured both before and after performing all the transport experiments. […] Transport buffer, 800 μL Hanks balanced salt sodium (HBSS) (pH 7.4) consisting of 10 mM HEPES without proteins was first dispensed to the basal side of the monolayer. The assay was then initiated by adding 200 μL, of compound solution to the apical side (all test compounds were diluted in HBSS, pH 6.5, with 1% DMSO as co-solvent). Two μL and 200 μL of samples were withdrawn before and at 45- and 120-min post addition of test compound, from the apical donor compartment and the base lateral receiver compartment, respectively. The transwell plates were kept for 120 min of incubation time at 37° C., 5% CO2, 95% relative humidity. At the end of incubation, sample solutions from both donor and receiver wells were mixed with acetonitrile containing internal standard (IS) immediately. Samples were analyzed including starting dosing solution, donor solution, and receiver solution by LC/MS/MS (API-4500). Concentrations of test compound was expressed as area ratio of analytes versus internal standard (IS).
A passive permeability was determined by complete chemical inhibition of the three major efflux transporters, ABCB1 (P-gp), ABCG2 (BCRP) and […] in Caco-2 cells using a cocktail of chemical inhibitors quinidine (P-gp), sulfasalazine (BCRP) and benzbromarone (MRP2)
The mean apparent permeability (Papp, X 10^−[…]) is calculated as follows
[formula] Where dq/dt=rate of transport (rate of transport of compound in the receiver compartment), Co=initial concentration in the donor compartment, A=surface area of the effective filter membrane. Plot the cumulative amount of transported drug against time to obtain rate transport. The percent recovery was calculated using the following equation

A2A receptor = molecular target: T1, A2A receptor (Homo sapiens, UniProt P29274); assay: A2aR antagonism IC50, cAMP TR-FRET in HEK-293 cells, high concentration of adenosine (30 μM); assay type: cell-based; settings: HEK-293 cells expressing A2A receptor; agonist adenosine 30 μM; 2% HSA; inhibition of cAMP; read-out: A2AR IC50 (nM) (@30 μM Adenosine);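 note: compounds added 10 min before adenosine, then 30 min stimulation at room temperature in buffer with 100 µM rolipram and 30 µM EHNA, signal read 1 h after detection reagents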
T1 construct: host or cells: HEK-293
T1 sequence (P29274 whole entry): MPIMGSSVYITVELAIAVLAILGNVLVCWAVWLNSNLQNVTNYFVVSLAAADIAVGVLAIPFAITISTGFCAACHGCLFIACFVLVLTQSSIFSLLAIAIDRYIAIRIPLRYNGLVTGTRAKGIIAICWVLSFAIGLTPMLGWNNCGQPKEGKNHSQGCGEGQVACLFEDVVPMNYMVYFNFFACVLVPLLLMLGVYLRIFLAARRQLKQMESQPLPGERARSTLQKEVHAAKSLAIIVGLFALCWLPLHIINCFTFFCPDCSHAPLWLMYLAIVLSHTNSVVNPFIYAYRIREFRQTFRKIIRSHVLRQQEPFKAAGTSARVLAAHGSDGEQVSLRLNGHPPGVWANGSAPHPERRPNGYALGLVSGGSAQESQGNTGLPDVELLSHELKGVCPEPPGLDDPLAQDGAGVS

[3] = Metabolic stability and intrinsic clearance in human hepatocytes (with IVIVE); assay type: in vitro ADME; settings: Human hepatocytes
Experimental: (§8) The metabolic stability was expressed as the percentage of parent remaining is calculated from the peak area ratio of NCE remaining after incubation (tx) compared to the time zero (t0) incubation. The percentage of parent test compound remaining at each time point was calculated by comparing the peak area ratio of test compound after incubation (tx) with peak area of time zero (t0) incubation. Similarly, half-life (t½) was calculated using following equation:
(§9) [formula] The intrinsic clearance (Clint) was calculated using the following equations:
(§10) [formula] Scaling factors to represent […] million cells/gm liver and liver/kg body wt.

Human hepatocytes = assay: as above; assay type: in vitro ADME; settings: Human; for Predicted CLh: IVIVE from hepatocyte CLint; for Hepatocyte Clint: Table 6 (IVIVE)
Experimental: as §8, §9, §10

[4] = Metabolic stability and intrinsic clearance in dog hepatocytes (with IVIVE); assay type: in vitro ADME; settings: Dog hepatocytes
Experimental: as §8, §9, §10

Dog hepatocytes = assay: as above; assay type: in vitro ADME; settings: Dog; for Predicted CLh: IVIVE from hepatocyte CLint; for Hepatocyte Clint: Table 6 (IVIVE)
Experimental: as §8, §9, §10

[5] = Pharmacokinetic study in rats; assay type: in vivo, male Sprague-Dawley (SD) rats; settings: for Vd / clearance / half-life / Cmax / Tmax / bioavailability: male, Sprague-Dawley, plasma; for Vd: read-out: Vss; for Cmax / Tmax: p.o; for Cmax: read-out: Cmax (head Co*/); for Tmax: read-out: Tmax (head Tma); for bioavailability: rat
Experimental: as §1, §2, §3, §4, §5, §6, §7

[6] = CD1, mouse, plasma, iv, i.v, 15 mg/kg
[7] = CD1, mouse, plasma, 30 mg/kg, p.o, 30 mg/kg, read-out: Cmax (head Co*/)
[8] = CD1, mouse, plasma, 30 mg/kg, p.o, 30 mg/kg, read-out: Tmax (head Tma)
[9] = Rat, IV bolus, Table 6, read-out: T1/2 (IV bolus) (converted)
[10] = oral, Rat, Table 6, read-out: % F
[11] = oral, Rat, oral vs IV bolus, doses per compound, read-out: % F (bioavailability)

| Cmax [1, 7] | Tmax [1, 8] | Papp A→B at 120 min, 10 µM [2] | Papp B→A at 120 min, 10 µM [2] | IC50 (A2A receptor) | Hepatocyte Clint [3] | Predicted CLh (Human hepatocytes) | Hepatocyte Clint (Human hepatocytes) | hepatocyte CLint at 0.5 μM [4] | Predicted CLh (Dog hepatocytes) | Hepatocyte Clint (Dog hepatocytes) | Total CLsystemic in plasma ([5]; Rat, Table 6) | Vd ([5]; intravenous, Rat, Table 6) | half-life [5, 9] | bioavailability [5, 10] | bioavailability [5, 11] | Distribution relative to TBW ([5]; rats & mice) | Compound | further results |
| --- | --- | --- | --- | --- | --- | --- | --- | --- | --- | --- | --- | --- | --- | --- | --- | --- | --- | --- |
| 3300 ng/mL | 12 min | 18.4 ×10⁻⁶ cm/s | 18.5 ×10⁻⁶ cm/s | 120 nM | < 8.2 µL/min/1e6 cells | 12 mL/min/kg | <8.2 μl/min/10^6 | 10.8 µL/min/1e6 cells | 18 mL/min/kg | 10.8 μl/min/10^6 | 90 mL/min/kg | 2.4 L/kg | 72 min | 27% | 27% | 2 × TBW | CCc1c(C)nn2c(N)c(C#N)c(NCCc3ccn(C4(CO)CC4)n3)nc12 [Example 39, 7-amino-3-ethyl-5-((2-(1-(1-(hydroxymethyl)cyclopropyl)-1H-pyrazol-3-yl)ethyl)amino)-2-methylpyrazolo[1,5-a] pyrimidine-6-carbonitrile] | clearance [1, 6]: 58 ± 14 mL/min/kg; half-life [1, 6]: 54 min; Vd ([1]; CD1, mouse, plasma, iv, i.v, 15 mg/kg, read-out: Vss): 1 L/kg; bioavailability ([1]; CD1, mouse, plasma, oral 30 mg/kg vs IV bolus 15 mg/kg, read-out: % F (bioavailability)): 15%; Co (head Co*/) ([1]; i.v, 15 mg/kg): 2236 ng/m; Oral exposure in mice ([1]; oral, compared with Example 13): High oral exposure; Co (head Co*/) ([5]; Rat, i.v, 15 mg/kg): 8676 ng/m; clearance ([5]; iv, Rat, i.v, 15 mg/kg): 90 ± 15 mL/min/kg; Vd ([5]; iv, Rat, i.v, 15 mg/kg): 2.4 L/kg; half-life ([5]; iv, Rat, i.v, 15 mg/kg, read-out: t1/2 (converted)): 72 min; Cmax ([5]; po, Rat, 100 mg/kg): 4100 ng/mL; Tmax ([5]; po, Rat, 100 mg/kg): 12 min; Total CL relative to hepatic clearance ([5]; rats & mice): 1.6 × |
| – | – | 14.4 ×10⁻⁶ cm/s | 15.9 ×10⁻⁶ cm/s | 130 nM | < 4.1 µL/min/1e6 cells | 8.6 mL/min/kg | <4.1 μl/min/10^6 | < 4.1 µL/min/1e6 cells | 10 mL/min/kg | <4.1 μl/min/10^6 | 78 mL/min/kg | 1.6 L/kg | 19.8 min | 21% | – | – | CCc1c(C)nn2c(N)c(C#N)c(NCCc3ccn(C4COCC4CO)n3)nc12 (single isomer, unassigned; (-)) [Example 122b, (−)-7-amino-3-ethyl-5-((2-(1-(4-(hydroxymethyl)tetrahydrofuran-3-yl)-1H-pyrazol-3-yl)ethyl)amino)-2-methyl pyrazolo[1,5-a]pyrimidine-6-carbonitrile] | AUC(0-t) ([1]; CD1, mouse, plasma, 100 mg/kg oral): 10500 ng·h/mL; Cmax ([1]; CD1, mouse, plasma, 100 mg/kg, 100 mg/kg oral, read-out: C. (Cmax)): 13800 ng/mL; Tmax ([1]; CD1, mouse, plasma, 100 mg/kg, 100 mg/kg oral, read-out: Tmax): 15 min; Cmax ([1]; CD1, mouse, plasma, 100 mg/kg, p.o, 100 mg/kg, read-out: Cmax (head Co*/)): 13800 ng/mL; Tmax ([1]; CD1, mouse, plasma, 100 mg/kg, p.o, 100 mg/kg, read-out: Tmax (head Tma)): 12 min; Total plasma systemic clearance (CL) relative to hepatic blood flow ([5]; Rat, IV bolus): 1.3 ×; Co (head Co*/) ([5]; Rat, i.v, 5 mg/kg): 4169 ng/m; clearance ([5]; iv, Rat, i.v, 5 mg/kg): 78 ± 17 mL/min/kg; Vd ([5]; iv, Rat, i.v, 5 mg/kg): 1.58 L/kg; half-life ([5]; iv, Rat, i.v, 5 mg/kg, read-out: t1/2 (converted)): 18 min; Cmax ([5]; po, Rat, 30 mg/kg): 983 ng/mL; Tmax ([5]; po, Rat, 30 mg/kg): 30 min; bioavailability ([5]; oral, 30 mg/kg, Rat, oral vs IV bolus, doses per compound, read-out: % F (bioavailability)): 21% |
| 236 ng/mL | 12 min | 58 ×10⁻⁶ cm/s | 19.5 ×10⁻⁶ cm/s | 300 nM | < 8.2 µL/min/1e6 cells | 12 mL/min/kg | <8.2 μl/min/10^6 | 9.5 µL/min/1e6 cells | 17 mL/min/kg | 9.5 μl/min/10^6 | 69 mL/min/kg | 1.4 L/kg | 24.6 min | < 1% | < 5% | 2 × TBW | Cc1cccc(CCNc2nc3c(C)c(C)nn3c(N)c2C#N)n1 [Example 13, 7-amino-5-((2-(6-methylpyridin-2-yl)ethyl)amino)-2,3-dimethylpyrazolo[1,5-a]pyrimidine-6-carbonitrile] | Co (head Co*/) ([5]; Rat, i.v, 3 mg/kg): 2242 ng/m; clearance ([5]; iv, Rat, i.v, 3 mg/kg): 69 ± 9 mL/min/kg; Vd ([5]; iv, Rat, i.v, 3 mg/kg): 1.4 L/kg; half-life ([5]; iv, Rat, i.v, 3 mg/kg, read-out: t1/2 (converted)): 24 min; Cmax ([5]; po, Rat, 10 mg/kg): 4.2 ng/mL; Tmax ([5]; po, Rat, 10 mg/kg): 12 min; bioavailability ([5]; po, Rat, oral vs IV bolus, doses per compound, read-out: % F (bioavailability)): < 1% |
